Consider 25 compounds from patent publication US8871767B2, “2-arylimidazo[1,2-B]pyridazine, 2-phenylimidazo[1,2-A]pyridine, and 2-phenylimidazo[1,2-A]pyrazine derivatives” (Hengrui (USA) Ltd., priority 2010, dated 2014).

For assay [1], the system named is Hedgehog pathway activation (GLi-luciferase reporter) in Shh Light II reporter cells. The assay is described as follows: Hedgehog pathway activation on Shh Light II reporter cells measured by luciferase activity. It is filed as cell-based. In short, it runs like this: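 Shh Light II reporter cells carrying a hedgehog-responsive GLi-luciferase reporter were stimulated either with 500 nM SAG, a direct Smoothened agonist, or with conditioned media containing human Sonic Hedgehog (hShh). Test compounds were evaluated for blocking this pathway activation, quantified by luciferase activity. Cell viability was monitored in parallel with the Celltiter-Blue® assay.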

Assay [2] has as its system Hedgehog pathway activation on 10T1/2/Smo#3 cells (C3H10T1/2 cells transfected with human Smoothened receptor). The assay is described as follows: Hedgehog pathway activation on 10T1/2/Smo#3 cells measured by ALP activity. In kind it is cell-based. Put shortly: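 C3H10T1/2 cells stably expressing human Smoothened were activated with hShh-conditioned medium (10-20%) or 500 nM SAG, with test compounds present. Pathway block read as inhibited ALP activity (4-methylumbelliferyl phosphate fluorescence); viability checked by CellTiter-Blue. IC50 values reported.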

The mark [3] stands for this setting: Mus musculus, Shh Light II, hShh activation, read-out: Shh (IC50, inhibition of Hedgehog pathway activation).
Where [4] appears, read: Mus musculus, C3H 10T1/2, 10T1/2/Smo#3 cells, measured by ALP activity, read-out: ALP (IC50, inhibition of Hedgehog pathway activation).
[5] abbreviates: hShh activation, read-out: Shh (IC50, inhibition of Hedgehog pathway activation).
Where [6] appears, read: 10T1/2/Smo#3 cells, measured by ALP activity, read-out: ALP (IC50, inhibition of Hedgehog pathway activation).
Where [7] appears, read: Mus musculus, Shh Light II, SAG activation (500 nM SAG), read-out: Shh Light II luciferase activity (SAG activation).
Setting [8] is: Mus musculus, Shh Light II, hShh activation, read-out: Shh Light II luciferase activity (hShh activation).
The mark [9] stands for this setting: Mus musculus, C3H 10T1/2, 10T1/2/Smo#3 cells, hShh activation, ALP activity, read-out: 10T1/2/Smo#3 ALP activity (hShh Activation).

Like-named read-outs stand apart in the source and are kept apart here.

On to `CCOc1ccc2nc(-c3ccc(C(F)(F)F)c(NC(=O)C(C)(C)C)c3)cn2n1` [Example 136, N-(5-(6-ethoxyimidazo[1,2-b]pyridazin-2-yl)-2-(trifluoromethyl)phenyl)pivalamide], for which the IC50 in assay [1] (setting [3]) came to 158 nM; in assay [2] (setting [4]), 452 nM.
For `CCc1ccc(-c2cn3nc(-c4cccnc4C(F)(F)F)ccc3n2)cc1NC(=O)CC(F)(F)F` [Example 692, N-(2-ethyl-5-(6-(2-(trifluoromethyl)pyridin-3-yl)imidazo[1,2-b]pyridazin-2-yl)phenyl)-3,3,3-trifluoropropanamide] the same measures were 416 nM and 951 nM.
For `CC(C)(C)C(=O)Nc1cc(-c2cn3nc(-c4ccc(F)cc4F)ccc3n2)ccc1C(F)(F)F` [Example 183, N-(5-(6-(2,4-difluorophenyl)imidazo[1,2-b]pyridazin-2-yl)-2-(trifluoromethyl)phenyl)pivalamide] the same measures were 327 nM and 995 nM.
For “N-(2-(2-(trifluoromethyl)pyridin-3-yl)-5-(6-(2-(trifluoromethyl)pyridin-3-yl)imidazo[1,2-b]pyridazin-2-yl)phenyl)pivalamide [Example 663]”, the results for the IC50 in assay [1] (setting [5]) and in assay [2] (setting [6]) were 6230 nM and 3540 nM, respectively.
On to `Cc1ccc(-c2cn3nc(NC(=O)c4cccc(Br)c4)ccc3n2)cc1NC(=O)C(C)(C)C` [compound 594], for which the IC50 in assay [1] (setting [3]) worked out at 20 nM; in assay [2] (setting [4]), 30 nM.
As to `COc1ccc2nc(-c3ccc(C)c(NC(=O)C(C)(C)C)c3)cn2n1` [Example 4, N-(5-(6-methoxyimidazo[1,2-b]pyridazin-2-yl)-2-methylphenyl)pivalamide], the results for the IC50 in assay [1] (setting [7]), in assay [1] (setting [8]) and in assay [2] (setting [9]) were 300 to 3000 nM, 3000 to 30000 nM and 300 to 3000 nM, respectively.
Regarding `CCCCS(=O)(=O)c1ccc2nc(-c3ccc(C)c(NC(=O)C(C)(C)C)c3)cn2n1` [Example 130, N-(5-(6-(butylsulfonyl)imidazo[1,2-b]pyridazin-2-yl)-2-methylphenyl)pivalamide], the IC50 in assay [1] (setting [7]) was less than 300 nM; in assay [1] (setting [3]), 898 nM; in assay [1] (setting [8]), 300 to 3000 nM; in assay [2] (setting [9]), 300 to 3000 nM; in assay [2] (setting [4]), 526 nM.
`CCc1ccc(-c2cn3nc(-c4cccnc4C(F)(F)F)ccc3n2)cc1NC(=O)C1(C)CC1` [Example 636, N-(2-ethyl-5-(6-(2-(trifluoromethy)pyridin-3-y)imidazo[1,2-b]pyridazin-2-yl)phenyl)-1-methylcyclopropanecarboxamide]: the IC50 stood at 131 nM in assay [1] (setting [5]) and 35 nM in assay [2] (setting [6]).
On to `CCN[C@H]1CCN(c2ccc3nc(-c4ccc(C)c(NC(=O)C(C)(C)C)c4)cn3n2)C1` [Example 394, (S)-N-(5-(6-(3-(ethylamino)pyrrolidin-1-yl)imidazo[1,2-b]pyridazin-2-yl)-2-methylphenyl)pivalamide], for which the figures for the IC50 in assay [1] (setting [3]) and in assay [2] (setting [4]) were 41 nM and 189 nM, respectively.
In the same order, the values of `Cc1ccc(-c2cn3nc(N4CC[C@@H](O)C4)ccc3n2)cc1NC(=O)C(C)(C)C` [Example 347, (R)-N-(5-(6-(3-hydroxypyrrolidin-1-yl)imidazo[1,2-b]pyridazin-2-yl)-2-methylphenyl)pivalamide] are 46 nM and 22 nM.
`CCOc1ccc2nc(-c3ccc(CC)c(NC(=O)C(C)(C)C)c3)cn2n1` [Example 283, N-(5-(6-ethoxyimidazo[1,2-b]pyridazin-2-yl)-2-ethylphenyl)pivalamide]: the IC50 in assay [1] (setting [7]) is 3000 to 30000 nM; in assay [1] (setting [3]) it was 2230 nM; in assay [1] (setting [8]), 300 to 3000 nM; in assay [2] (setting [9]) it was 300 to 3000 nM; in assay [2] (setting [4]), 1820 nM.
Regarding `CC(C)(C)C(=O)Nc1cc(-c2cn3nc(N4CCC[C@H](O)C4)ccc3n2)ccc1C(F)(F)F` [Example 358, (S)-N-(5-(6-(3-hydroxypiperidin-1-yl)imidazo[1,2-b]pyridazin-2-yl)-2-(trifluoromethyl)phenyl)pivalamide], the IC50 in assay [1] (setting [3]) was determined as 225 nM; in assay [2] (setting [4]), 387 nM.
In the same order, the values of `CCOc1ccc2nc(-c3ccc(C(F)(F)F)c(S(=O)(=O)NC4CCCCC4)c3)cn2n1` [Example 214, N-cyclohexyl-5-(6-ethoxyimidazo[1,2-b]pyridazin-2-yl)-2-(trifluoromethyl)benzenesulfonamide] are greater than 10000 nM and 1580 nM.
For `O=C(Nc1cc(-c2cn3nc(-c4cccnc4C(F)(F)F)ccc3n2)ccc1Cl)N1CC(F)(F)C1` [Example 669, N-(2-chloro-5-(6-(2-(trifluoromethyl)pyridin-3-yl)imidazo[1,2-b]pyridazin-2-yl)phenyl)-3,3-difluoroazetidine-1-carboxamide], the IC50 is less than 300 nM in assay [1] (setting [7]); 28 nM in assay [1] (setting [3]); less than 300 nM in assay [1] (setting [8]); less than 300 nM in assay [2] (setting [9]); 125 nM in assay [2] (setting [4]).
Regarding `CC(C)(C)C(=O)Nc1cc(-c2cn3nc(C(N)=O)ccc3n2)ccc1C(F)(F)F` [Example 180, 2-(3-pivalamido-4-(trifluoromethyl)phenyl)imidazo[1,2-b]pyridazine-6-carboxamide], the IC50 in assay [1] (setting [7]) was 3000 to 30000 nM; in assay [1] (setting [3]), 3880 nM; in assay [1] (setting [8]), 3000 to 30000 nM; in assay [2] (setting [9]), 3000 to 30000 nM; in assay [2] (setting [4]), 5730 nM.
For the compound `CN(C)c1ncc(-c2ccc3nc(-c4ccc(C(F)(F)F)c(NC(=O)C(C)(C)C)c4)cn3n2)cn1` [Example 378, N-(5-(6-(2-(dimethylamino)pyrimidin-5-yl)imidazo[1,2-b]pyridazin-2-yl)-2-(trifluoromethyl)phenyl)pivalamide], the IC50 in assay [1] (setting [3]) came out at 1540 nM; in assay [2] (setting [4]), 963 nM.
`Cc1c(-c2ccccc2)nc2ccc(N3CCN(C(=O)OC(C)(C)C)CC3)nn12` [Example 158, tert-butyl 4-(3-methyl-2-phenylimidazo[1,2-b]pyridazin-6-yl)piperazine-1-carboxylate]: the IC50 in assay [1] (setting [7]) was 300 to 3000 nM; in assay [1] (setting [3]), 847 nM; in assay [1] (setting [8]) it was 3000 to 30000 nM; in assay [2] (setting [9]), 3000 to 30000 nM; in assay [2] (setting [4]) it was 7340 nM.
As to `CC(C)(C)C(=O)Nc1cc(-c2cn3nc(N4CCC(O)C4)ccc3n2)ccc1C(F)(F)F` (stereo not drawn) [Example 337, N-(5-(6-(3-hydroxypyrrolidin-1-yl)imidazo[1,2-b]pyridazin-2-yl)-2-(trifluoromethyl)phenyl)pivalamide], the IC50 in assay [1] (setting [5]) is 308 nM; in assay [2] (setting [4]), 194 nM.
Consider `Cc1ccc(-c2cn3nc(-c4cc(F)ccc4C(F)(F)F)ccc3n2)cc1NC(=O)C(C)(C)C` [Example 281, N-(5-(6-(5-fluoro-2-(trifluoromethyl)phenyl)imidazo[1,2-b]pyridazin-2-yl)-2-methylphenyl)pivalamide], for which the figures for the IC50 in assay [1] (setting [3]) and in assay [2] (setting [4]) were 72 nM and 38 nM, respectively.
Consider `COc1ccc2nc(-c3cc(NC(=O)C(C)(C)C)c(C)cc3C)cn2n1` [Example 106, N-(5-(6-methoxyimidazo[1,2-b]pyridazin-2-yl)-2,4-dimethylphenyl)pivalamide], for which the IC50 is 300 to 3000 nM in assay [1] (setting [7]); 774 nM in assay [1] (setting [3]); 300 to 3000 nM in assay [1] (setting [8]); 300 to 3000 nM in assay [2] (setting [9]); 2500 nM in assay [2] (setting [4]).
Consider `Cc1ccc(-c2cn3nc(N4CCC(O)C4)ccc3n2)cc1NC(=O)C(C)(C)C` (stereo not drawn) [Example 468, N-(5-(6-(3-hydroxypyrrolidin-1-yl)imidazo[1,2-b]pyridazin-2-yl)-2-methylphenyl)pivalamide], for which the IC50 in assay [1] (setting [3]) came to 44 nM; in assay [2] (setting [4]) it was 23 nM.
In the case of `CC(C)(C)C(=O)Nc1cc(-c2cn3nc(-c4ccc(F)nc4)ccc3n2)ccc1C(F)(F)F` [Example 174, N-(5-(6-(6-fluoropyridin-3-yl)imidazo[1,2-b]pyridazin-2-yl)-2-(trifluoromethyl)phenyl)pivalamide], the IC50 was 689 nM in assay [1] (setting [3]) and 215 nM in assay [2] (setting [4]).
For `CCOC(=O)CCCCCCOc1ccc(C(F)(F)F)c(-c2ccc3nc(-c4ccc(C)c(NC(=O)C(C)(C)C)c4)cn3n2)c1` [Example 425, ethyl 7-(3-(2-(4-methyl-3-pivalamidophenyl)imidazo[1,2-b]pyridazin-6-yl)-4-(trifluoromethyl)phenoxy)heptanoate] the same measures were 86 nM and 239 nM.
With `CC(C)(C)C(=O)Nc1cc(-c2cn3nc(-c4cccnc4C(F)(F)F)ccc3n2)ccc1C(F)(F)F` [Example 292, N-(2-(trifluoromethyl)-5-(6-(2-(trifluoromethyl)pyridin-3-yl)imidazo[1,2-b]pyridazin-2-yl)phenyl)pivalamide], the values for the IC50 in assay [1] (setting [3]) and in assay [2] (setting [4]) were 47 nM and 19 nM, respectively.
For `CCN1CCCC1C(=O)Nc1cc(-c2cn3nc(-c4cccnc4C(F)(F)F)ccc3n2)ccc1C` (stereo not drawn) [Example 648, 1-ethyl-N-(2-methyl-5-(6-(2-(trifluoromethyl)pyridin-3-yl)imidazo[1,2-b]pyridazin-2-yl)phenyl)pyrrolidine-2-carboxamide] the same measures were 400 nM and 373 nM.
